{"source": "the supplement of paper PMC4862054"}
{"test_system": "HCC1937", "test": "normalised response (% of control), CellTiter-Glo; higher = more viable cells (100 = DMSO, 0 = benzethonium chloride kill control)", "conditions": "incubation time: 72 h", "outline": "(§1)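 Each value is the plate-normalised signal at one concentration of the series. Breast cancer cell lines (20 µl suspension) were incubated 72 h in 384-well plates with compound at 5 concentrations in 10-fold steps over a compound-specific 10,000-fold range. CellTox Green and then CellTiter-Glo were read, and each plate was scaled to 0.1 % DMSO (100) and a positive kill control (0).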", "units": {"normalised response": "%"}}
{"smiles": "C/C(=C\\c1csc(C)n1)[C@@H]1C[C@@H]2O[C@]2(C)CCC[C@H](C)[C@H](O)[C@@H](C)C(=O)C(C)(C)[C@@H](O)CC(=O)N1", "note": "[Ixabepilone] (1 nM)", "normalised response": 97.6}
{"smiles": "CN(C)C(=N)NC(=N)N", "note": "[Metformin] (100 nM)", "normalised response": 99.6}
{"smiles": "CC[C@H](CO)Nc1nc(NCc2ccccc2)c2ncn(C(C)C)c2n1", "note": "[Seliciclib] (10 nM)", "normalised response": 104}
{"smiles": "O=[N+]([O-])c1ccc2c(c1)S(=O)(=O)C=C2", "note": "[Stattic] (50 nM)", "normalised response": 102}
{"smiles": "O=C(CCCCCCC(=O)Nc1ccccc1)NO", "note": "[Vorinostat] (10 nM)", "normalised response": 101}
{"test_system": "SK-BR-3", "test": "normalised response (% of control), CellTiter-Glo; higher = more viable cells (100 = DMSO, 0 = benzethonium chloride kill control)", "conditions": "incubation time: 72 h", "outline": "as §1", "units": {"normalised response": "%"}}
{"smiles": "CCn1c(C(=O)N(C2CC2)C2CC2)cc2c3c(ncn3C)c(Nc3cc(C)n(C)n3)nc21", "note": "(1 nM)", "normalised response": 102}
{"smiles": "CN[C@@H](C)C(=O)N[C@H]1CN(C(=O)CC(C)C)CC[C@H]2CC[C@@H](C(=O)NC(c3ccccc3)c3ccccc3)N2C1=O", "note": "[AT-406] (1 nM)", "normalised response": 105}
{"smiles": "CN[C@@H](C)C(=O)N[C@H]1CN(C(=O)CC(C)C)CC[C@H]2CC[C@@H](C(=O)NC(c3ccccc3)c3ccccc3)N2C1=O", "note": "[AT-406] (10 nM)", "normalised response": 110}
{"smiles": "Cc1cc(Nc2nc(N[C@@H](C)c3ncc(F)cn3)ncc2Cl)[nH]n1", "note": "[AZD1480] (1 nM)", "normalised response": 118}
{"smiles": "CNC(=O)c1ccccc1Sc1ccc2c(/C=C/c3ccccn3)n[nH]c2c1", "note": "[Axitinib] (10 nM)", "normalised response": 106}
{"smiles": "CC(O)(CS(=O)(=O)c1ccc(F)cc1)C(=O)Nc1ccc(C#N)c(C(F)(F)F)c1", "note": "(stereo not drawn) [Bicalutamide] (10 nM)", "normalised response": 130}
{"smiles": "COc1cc(Nc2c(C#N)cnc3cc(OCCCN4CCN(C)CC4)c(OC)cc23)c(Cl)cc1Cl", "note": "[Bosutinib] (10 nM)", "normalised response": 102}
{"smiles": "CCN(CC)CCCC(C)Nc1ccnc2cc(Cl)ccc12", "note": "(stereo not drawn) [Chloroquine] (10 nM)", "normalised response": 92.5}
{"test_system": "Hs578T", "test": "normalised response (% of control), CellTiter-Glo; higher = more viable cells (100 = DMSO, 0 = benzethonium chloride kill control)", "conditions": "incubation time: 72 h", "outline": "as §1", "units": {"normalised response": "%"}}
{"smiles": "CCn1c(C(=O)N(C2CC2)C2CC2)cc2c3c(ncn3C)c(Nc3cc(C)n(C)n3)nc21", "note": "(1 nM)", "normalised response": 98}
{"smiles": "CCn1c(C(=O)N(C2CC2)C2CC2)cc2c3c(ncn3C)c(Nc3cc(C)n(C)n3)nc21", "note": "(10 nM)", "normalised response": 105}
{"smiles": "COc1ccc(S(=O)(=O)Nc2cccnc2Nc2ccc(O)cc2)cc1", "note": "[ABT-751] (10 nM)", "normalised response": 93.8}
{"smiles": "CN[C@@H](C)C(=O)N[C@H]1CN(C(=O)CC(C)C)CC[C@H]2CC[C@@H](C(=O)NC(c3ccccc3)c3ccccc3)N2C1=O", "note": "[AT-406] (1 nM)", "normalised response": 95.1}
{"smiles": "CN[C@@H](C)C(=O)N[C@H]1CN(C(=O)CC(C)C)CC[C@H]2CC[C@@H](C(=O)NC(c3ccccc3)c3ccccc3)N2C1=O", "note": "[AT-406] (10 nM)", "normalised response": 99.5}
{"smiles": "Cc1cc(Nc2nc(N[C@@H](C)c3ncc(F)cn3)ncc2Cl)[nH]n1", "note": "[AZD1480] (1 nM)", "normalised response": 99.7}
{"smiles": "CNC(=O)c1ccccc1Sc1ccc2c(/C=C/c3ccccn3)n[nH]c2c1", "note": "[Axitinib] (10 nM)", "normalised response": 97.7}
{"smiles": "CC(O)(CS(=O)(=O)c1ccc(F)cc1)C(=O)Nc1ccc(C#N)c(C(F)(F)F)c1", "note": "(stereo not drawn) [Bicalutamide] (10 nM)", "normalised response": 99}
{"smiles": "CCNC(=O)CCC/C=C\\C[C@@H]1[C@@H](/C=C/[C@@H](O)CCc2ccccc2)[C@H](O)C[C@@H]1O", "note": "[Bimatoprost] (5.5 nM)", "normalised response": 98.4}
{"smiles": "COc1cc(Nc2c(C#N)cnc3cc(OCCCN4CCN(C)CC4)c(OC)cc23)c(Cl)cc1Cl", "note": "[Bosutinib] (10 nM)", "normalised response": 104}
{"smiles": "CCN(CC)CCCC(C)Nc1ccnc2cc(Cl)ccc12", "note": "(stereo not drawn) [Chloroquine] (10 nM)", "normalised response": 104}
{"smiles": "CC1(COc2ccc3c(c2)ncn3-c2ccc3cccc(N4CCC(N)CC4)c3n2)COC1", "note": "[Crenolanib] (10 nM)", "normalised response": 98.7}
{"smiles": "CC(C)(C)c1nc(-c2cccc(NS(=O)(=O)c3c(F)cccc3F)c2F)c(-c2ccnc(N)n2)s1", "note": "[Dabrafenib] (2.5 nM)", "normalised response": 103}
{"smiles": "Nc1ccn([C@@H]2O[C@H](CO)[C@@H](O)C2(F)F)c(=O)n1", "note": "[Gemcitabine] (1 nM)", "normalised response": 98.1}
{"smiles": "O=C(O)CNC(=O)c1c(O)c2ccccc2n(Cc2ccccc2)c1=O", "note": "[IOX-2] (50 nM)", "normalised response": 102}
{"smiles": "CC(=O)[C@]1(O)Cc2c(O)c3c(c(O)c2[C@@H](O[C@H]2C[C@H](N)[C@H](O)[C@H](C)O2)C1)C(=O)c1ccccc1C3=O", "note": "[Idarubicin] (1 nM)", "normalised response": 99.5}
{"smiles": "C/C(=C\\c1csc(C)n1)[C@@H]1C[C@@H]2O[C@]2(C)CCC[C@H](C)[C@H](O)[C@@H](C)C(=O)C(C)(C)[C@@H](O)CC(=O)N1", "note": "[Ixabepilone] (1 nM)", "normalised response": 105}
{"smiles": "CN(C)C(=N)NC(=N)N", "note": "[Metformin] (100 nM)", "normalised response": 94}
{"smiles": "CC[C@H](CO)Nc1nc(NCc2ccccc2)c2ncn(C(C)C)c2n1", "note": "[Seliciclib] (10 nM)", "normalised response": 105}
{"smiles": "O=[N+]([O-])c1ccc2c(c1)S(=O)(=O)C=C2", "note": "[Stattic] (50 nM)", "normalised response": 103}
{"smiles": "O=C(CCCCCCC(=O)Nc1ccccc1)NO", "note": "[Vorinostat] (10 nM)", "normalised response": 98.1}
{"test_system": "MFM-223", "test": "normalised response (% of control), CellTiter-Glo; higher = more viable cells (100 = DMSO, 0 = benzethonium chloride kill control)", "conditions": "incubation time: 72 h", "outline": "as §1", "units": {"normalised response": "%"}}
{"smiles": "CCn1c(C(=O)N(C2CC2)C2CC2)cc2c3c(ncn3C)c(Nc3cc(C)n(C)n3)nc21", "note": "(1 nM)", "normalised response": 102}
{"smiles": "CCn1c(C(=O)N(C2CC2)C2CC2)cc2c3c(ncn3C)c(Nc3cc(C)n(C)n3)nc21", "note": "(10 nM)", "normalised response": 102}
{"smiles": "COc1ccc(S(=O)(=O)Nc2cccnc2Nc2ccc(O)cc2)cc1", "note": "[ABT-751] (10 nM)", "normalised response": 96.7}
{"smiles": "CN[C@@H](C)C(=O)N[C@H]1CN(C(=O)CC(C)C)CC[C@H]2CC[C@@H](C(=O)NC(c3ccccc3)c3ccccc3)N2C1=O", "note": "[AT-406] (1 nM)", "normalised response": 101}
{"smiles": "CN[C@@H](C)C(=O)N[C@H]1CN(C(=O)CC(C)C)CC[C@H]2CC[C@@H](C(=O)NC(c3ccccc3)c3ccccc3)N2C1=O", "note": "[AT-406] (10 nM)", "normalised response": 105}
{"smiles": "Cc1cc(Nc2nc(N[C@@H](C)c3ncc(F)cn3)ncc2Cl)[nH]n1", "note": "[AZD1480] (1 nM)", "normalised response": 95.1}
{"smiles": "CNC(=O)c1ccccc1Sc1ccc2c(/C=C/c3ccccn3)n[nH]c2c1", "note": "[Axitinib] (10 nM)", "normalised response": 105}
{"smiles": "CC(O)(CS(=O)(=O)c1ccc(F)cc1)C(=O)Nc1ccc(C#N)c(C(F)(F)F)c1", "note": "(stereo not drawn) [Bicalutamide] (10 nM)", "normalised response": 111}
{"smiles": "CCNC(=O)CCC/C=C\\C[C@@H]1[C@@H](/C=C/[C@@H](O)CCc2ccccc2)[C@H](O)C[C@@H]1O", "note": "[Bimatoprost] (5.5 nM)", "normalised response": 96.1}
{"smiles": "COc1cc(Nc2c(C#N)cnc3cc(OCCCN4CCN(C)CC4)c(OC)cc23)c(Cl)cc1Cl", "note": "[Bosutinib] (10 nM)", "normalised response": 106}
{"smiles": "CCN(CC)CCCC(C)Nc1ccnc2cc(Cl)ccc12", "note": "(stereo not drawn) [Chloroquine] (10 nM)", "normalised response": 96.7}
{"smiles": "CC1(COc2ccc3c(c2)ncn3-c2ccc3cccc(N4CCC(N)CC4)c3n2)COC1", "note": "[Crenolanib] (10 nM)", "normalised response": 108}
{"smiles": "CC(C)(C)c1nc(-c2cccc(NS(=O)(=O)c3c(F)cccc3F)c2F)c(-c2ccnc(N)n2)s1", "note": "[Dabrafenib] (2.5 nM)", "normalised response": 101}
{"smiles": "Nc1ccn([C@@H]2O[C@H](CO)[C@@H](O)C2(F)F)c(=O)n1", "note": "[Gemcitabine] (1 nM)", "normalised response": 101}
